By MIC is commonly meant the lowest concentration found to suppress growth.

Holding throughout (format): functional
The subject of one experiment is Escherichia coli. Nature of the experiment: Antimicrobial activity against Escherichia coli ATCC 25922 assessed as growth inhibition after 24 hr by NCCLS broth dilution method.
Another experiment has as its system Bacillus subtilis. Nature of the experiment: Antimicrobial activity against Bacillus subtilis ATCC 6633 assessed as growth inhibition after 24 hr by NCCLS broth dilution method.
The test system of a further experiment is Staphylococcus aureus. Nature of the experiment: Antimicrobial activity against Staphylococcus aureus ATCC 25923 assessed as growth inhibition after 24 hr by NCCLS broth dilution method.
A further experiment has as its system Pseudomonas aeruginosa. Description: Antimicrobial activity against Pseudomonas aeruginosa ATCC 27853 assessed as growth inhibition after 24 hr by NCCLS broth dilution method. For orientation: Broth dilution looks for growth in wells or tubes with falling amounts of substance.

In brackets after ≈: the same amount, converted by molar mass. Activity calls are given as the source filed them. No cut-off for these calls is given here.

`CN1CCN(c2cc3ncnc(Sc4nnc(-c5cccnc5)o4)c3cc2NC(=O)Nc2cccc(Cl)c2)CC1`: the MIC result with Escherichia coli, in the experiment with Bacillus subtilis, in the experiment with Staphylococcus aureus and in the experiment on Pseudomonas aeruginosa was “inactive” each time. Besides, the MIC in the experiment on Escherichia coli (ATCC 25922, 24 h) came out at 50 µg/mL (≈ 87.1 µM); in the experiment on Bacillus subtilis (ATCC 6633, 24 h), 12.5 µg/mL (≈ 21.8 µM); in the experiment with Staphylococcus aureus (ATCC 25923, 24 h) it was 6.25 µg/mL (≈ 10.9 µM); with Pseudomonas aeruginosa (ATCC 27853, 24 h), 25 µg/mL (≈ 43.5 µM).

Consider `S=C(Nc1ccc(Cl)cc1)Nc1ccc2ncnc(Sc3nnc(-c4cccnc4)o3)c2c1`, for which the MIC entry with Escherichia coli, with Bacillus subtilis, with Staphylococcus aureus and in the experiment on Pseudomonas aeruginosa was “inactive” each time. Moreover, the MIC in the experiment on Escherichia coli (ATCC 25922, 24 h) was determined as 25 µg/mL (≈ 50.8 µM); in the experiment on Bacillus subtilis (ATCC 6633, 24 h), 12.5 µg/mL (≈ 25.4 µM); in the experiment with Staphylococcus aureus (ATCC 25923, 24 h), 25 µg/mL (≈ 50.8 µM); in the experiment on Pseudomonas aeruginosa (ATCC 27853, 24 h) it was 100 µg/mL (≈ 203 µM).

Take `CN1CCN(c2cc3ncnc(Sc4nnc(-c5cccnc5)o4)c3cc2NC(=O)Nc2ccc(-c3ccccc3)cc2)CC1`: the MIC result in the experiment on Escherichia coli, in the experiment with Bacillus subtilis, with Staphylococcus aureus and in the experiment on Pseudomonas aeruginosa was “inactive” each time. The MIC in the experiment with Escherichia coli (ATCC 25922, 24 h) was found to be 50 µg/mL (≈ 81.2 µM); in the experiment on Bacillus subtilis (ATCC 6633, 24 h), 100 µg/mL (≈ 162 µM); with Staphylococcus aureus (ATCC 25923, 24 h), 25 µg/mL (≈ 40.6 µM); in the experiment with Pseudomonas aeruginosa (ATCC 27853, 24 h), 25 µg/mL (≈ 40.6 µM).

As to `CN1CCN(c2cc3ncnc(Sc4nnc(-c5cccnc5)o4)c3cc2NC(=S)Nc2cccc(Cl)c2)CC1`, the MIC entry in the experiment on Escherichia coli, in the experiment on Bacillus subtilis, with Staphylococcus aureus and in the experiment with Pseudomonas aeruginosa was “inactive” each time. Besides, the MIC amounted to 12.5 µg/mL (≈ 21.2 µM) with Escherichia coli (ATCC 25922, 24 h); 25 µg/mL (≈ 42.4 µM) with Bacillus subtilis (ATCC 6633, 24 h); 6.25 µg/mL (≈ 10.6 µM) in the experiment with Staphylococcus aureus (ATCC 25923, 24 h); 50 µg/mL (≈ 84.7 µM) in the experiment with Pseudomonas aeruginosa (ATCC 27853, 24 h).

With `CN[C@@H]1[C@H](O[C@H]2[C@H](O[C@H]3[C@H](O)[C@@H](O)[C@H](N=C(N)N)[C@@H](O)[C@@H]3N=C(N)N)O[C@@H](C)[C@]2(O)C=O)O[C@@H](CO)[C@H](O)[C@H]1O` [STREPTOMYCIN], the MIC entry with Escherichia coli, in the experiment on Bacillus subtilis, with Staphylococcus aureus and in the experiment on Pseudomonas aeruginosa was “inactive” each time. The MIC in the experiment on Escherichia coli (ATCC 25922, 24 h) was 3.12 µg/mL (≈ 5.37 µM); in the experiment with Bacillus subtilis (ATCC 6633, 24 h), 6.25 µg/mL (≈ 10.7 µM); in the experiment on Staphylococcus aureus (ATCC 25923, 24 h), 6.25 µg/mL (≈ 10.7 µM); in the experiment on Pseudomonas aeruginosa (ATCC 27853, 24 h) it was 3.12 µg/mL (≈ 5.37 µM).

Regarding `CN1CCN(c2cc3ncnc(Sc4nnc(-c5cccnc5)o4)c3cc2NC(=S)Nc2ccccc2Cl)CC1`, the MIC result in the experiment with Escherichia coli, with Bacillus subtilis, in the experiment on Staphylococcus aureus and in the experiment with Pseudomonas aeruginosa was “inactive” each time. The minimum inhibitory concentration (MIC) is 25 µg/mL (≈ 42.4 µM) in the experiment on Escherichia coli (ATCC 25922, 24 h); 6.25 µg/mL (≈ 10.6 µM) with Bacillus subtilis (ATCC 6633, 24 h); 25 µg/mL (≈ 42.4 µM) with Staphylococcus aureus (ATCC 25923, 24 h); 12.5 µg/mL (≈ 21.2 µM) in the experiment on Pseudomonas aeruginosa (ATCC 27853, 24 h).

Turning to `Cc1cccc(NC(=O)Nc2ccc3ncnc(Sc4nnc(-c5cccnc5)o4)c3c2)c1`, the MIC entry in the experiment on Escherichia coli, with Bacillus subtilis, in the experiment with Staphylococcus aureus and with Pseudomonas aeruginosa was “inactive” throughout. The MIC is 12.5 µg/mL (≈ 27.4 µM) in the experiment with Escherichia coli (ATCC 25922, 24 h); 25 µg/mL (≈ 54.9 µM) in the experiment with Bacillus subtilis (ATCC 6633, 24 h); 25 µg/mL (≈ 54.9 µM) in the experiment on Staphylococcus aureus (ATCC 25923, 24 h); 50 µg/mL (≈ 110 µM) with Pseudomonas aeruginosa (ATCC 27853, 24 h).

As to `Cc1ccccc1NC(=S)Nc1ccc2ncnc(Sc3nnc(-c4cccnc4)o3)c2c1`, the MIC entry with Escherichia coli, in the experiment on Bacillus subtilis, in the experiment on Staphylococcus aureus and in the experiment with Pseudomonas aeruginosa was “inactive” throughout. Also, the MIC in the experiment with Escherichia coli (ATCC 25922, 24 h) is 25 µg/mL (≈ 53 µM); with Bacillus subtilis (ATCC 6633, 24 h) it was 50 µg/mL (≈ 106 µM); in the experiment on Staphylococcus aureus (ATCC 25923, 24 h), 75 µg/mL (≈ 159 µM); in the experiment with Pseudomonas aeruginosa (ATCC 27853, 24 h), 100 µg/mL (≈ 212 µM).

Consider `CN1CCN(c2cc3ncnc(Sc4nnc(-c5cccnc5)o4)c3cc2NC(=S)Nc2ccc(Cl)cc2)CC1`, for which the MIC result in the experiment on Escherichia coli, with Bacillus subtilis, in the experiment with Staphylococcus aureus and with Pseudomonas aeruginosa was “inactive” each time. The MIC in the experiment with Escherichia coli (ATCC 25922, 24 h) came out at 50 µg/mL (≈ 84.7 µM); in the experiment with Bacillus subtilis (ATCC 6633, 24 h), 12.5 µg/mL (≈ 21.2 µM); in the experiment with Staphylococcus aureus (ATCC 25923, 24 h), 25 µg/mL (≈ 42.4 µM); with Pseudomonas aeruginosa (ATCC 27853, 24 h) it was 50 µg/mL (≈ 84.7 µM).

The record behind these values is ChEMBL document CHEMBL3046216, “Synthesis, biological evaluation and QSAR study of a series of substituted quinazolines as antimicrobial agents” (2013).
